We go through 4 compounds from patent US7989430B2, “Antibacterial agents” (priority 2005, dated 2011).

What is called melting point is the temperature, or range, at which the solid turns liquid. In general, MIC50 refers to the lowest concentration that inhibits either 50% of growth or 50% of the strains tested, depending on the study.

For series [1] the following is noted: 50% aq TFA, 3 h.
In series [2] the test system is M. tuberculosis H37Rv. Nature of the series: M. tuberculosis H37Rv MIC assay (whole-cell). Format: cell-based, Mycobacterium tuberculosis.
In a further series the target is MbtA (Mycobacterium tuberculosis, UniProt P71716). Conditions: data not shown.
A short description of series [3]: Chemical stability on storage. Conditions: salt form prepared in Example 1 vs free acid.
Series [4] has as its system M. tuberculosis H37Rv. To be noted: Ferreras et al., Nature Chem. Biol. 2005, likely the free acid form; cited from earlier work.

Converted amounts (≈) assume the structure as drawn. Where only a bound is given, the exact number is not on record here.

Sequence of MbtA (P71716 whole entry): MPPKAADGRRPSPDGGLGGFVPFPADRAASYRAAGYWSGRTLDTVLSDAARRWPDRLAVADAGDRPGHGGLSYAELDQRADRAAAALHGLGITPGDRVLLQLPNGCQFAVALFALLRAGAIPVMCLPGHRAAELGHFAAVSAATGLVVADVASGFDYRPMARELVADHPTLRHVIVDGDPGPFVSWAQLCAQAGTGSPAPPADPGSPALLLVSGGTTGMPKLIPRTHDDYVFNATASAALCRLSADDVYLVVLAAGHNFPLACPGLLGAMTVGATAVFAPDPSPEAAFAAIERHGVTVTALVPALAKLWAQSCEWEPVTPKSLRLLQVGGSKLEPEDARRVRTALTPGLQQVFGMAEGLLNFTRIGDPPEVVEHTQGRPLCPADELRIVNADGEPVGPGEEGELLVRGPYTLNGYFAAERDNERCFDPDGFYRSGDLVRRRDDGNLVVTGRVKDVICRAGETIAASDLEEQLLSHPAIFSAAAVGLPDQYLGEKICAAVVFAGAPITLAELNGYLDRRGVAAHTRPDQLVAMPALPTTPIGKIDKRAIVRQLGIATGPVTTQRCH
Description for MbtA: Adenylation Inhibition Assay. […] The assay exploits the equilibrium nature of the acylation reaction which can be summarized as follows: E+S+ATP ? [E-S-AMP]+PPi. […] Thus, ^32PPi is added and its incorporation to [^32P]ATP is measured. The ^32P-ATP formed is isolated by adsorption onto charcoal and the charcoal is washed to remove [^32P]PPi. The charcoal is transferred to a scintillation vial and counts are measured on a Beckman 6800 scintillation counter using liquid-scintillation-counting. Data Analysis. The counts obtained from above are used to determine the initial velocity of ^32P-ATP formation (ν0). Measuring the initial velocity (ν0) at in the presence of various concentrations of inhibitor allows one to measure the KI values of the inhibitors. Potential irreversible inactivators are examined for any noncompetitive behavior by pre-incubating with MbtA for various times. A time dependent inhibition is evidence for irreversible inactivation.

As for `Nc1ncnc2c1ncn2[C@@H]1O[C@H](COS(=O)(=O)NC(=O)c2ccc(O)c(O)c2)[C@@H](O)[C@H]1O`, the melting point was > 190 °C (dec.).
As for `CCN(CC)CC.Nc1ncnc2c1ncn2[C@H]1C[C@H](O)[C@@H](COS(=O)(=O)NC(=O)c2ccccc2O)O1` [Example 42, 2′-Deoxy-5′-O—[N-(2-hydroxybenzoyl)sulfamoyl]-adenosine triethylammonium salt], in series [1], the “stability under acidic conditions” value is on record as “unstable”. The “activity in whole-cell assay of M. tuberculosis” value in the series on M. tuberculosis H37Rv [2] (data not shown) is on record as “potent activity”. In addition, at MbtA, the “activity in the in vitro enzyme assay” value is “potent activity”.
Take `CCN(CC)CC.Nc1ncnc2c1ncn2[C@@H]1O[C@H](COS(=O)(=O)NC(=O)c2ccccc2O)[C@@H](O)[C@H]1O` [Example 1, 5′-O—(N-(2-Hydroxybenzoyl)sulfamoyl)-adenosine triethylammonium salt]: the “potency against M. tuberculosis H37Rv relative to the free acid” value in the series on M. tuberculosis H37Rv [2] (salt form vs free acid) is given as “about 28 times”. Also, the “stability relative to the free acid” value in series [3] is given as “significantly more stable”.
Take `Nc1ncnc2c1ncn2[C@@H]1O[C@H](COS(=O)(=O)NC(=O)c2ccccc2O)[C@@H](O)[C@H]1O` [Compound 34, 5′-O—(N-(2-hydroxybenzoyl)sulfamoyl)adenosine]: in the series on M. tuberculosis H37Rv [4], the MIC50 was 2.2 µM (≈ 1.03 µg/mL).
